Source: patent US10364222B2, “Cyclic amine derivative and medical use thereof” (Toray Industries, Inc., priority 2016, dated 2019)

Tests used:
[1] = test system: imiquimod-induced mouse psoriasis model; test: Imiquimod-induced mouse psoriasis model; assay type: in vivo; conditions: BALB/c mice; 10 mg/kg orally once daily from 3 to 7 days after induction; vs vehicle, Student's t-test P<0.05
Description: Using increase in the ear thickness as an index of exacerbation of symptoms, the effect of the cyclic amine derivative (I) or a pharmacologically acceptable salt thereof in an imiquimod-induced mouse psoriasis model was evaluated. The imiquimod-induced mouse psoriasis model was prepared by a partially modified method by Schaper et al. (The Journal of Dermatological Science, 2013, Vol. 71, No. 1, p. 29-36).
BALB/c mice (male, 7 weeks old) (Charles River Laboratories Japan, Inc.) were used at 8 weeks old after preliminary breeding. To induce psoriasis-like symptoms, 5 mg each of BESELNA CREAM 5% was applied once daily to the outside of the right and left auricles of the mice for 8 days from the day of first administration of imiquimod (hereinafter referred to as induction day) to 7 days after induction (dose of imiquimod, 0.5 mg/body/day).
The test compound at a dose of 10 mg/kg was administered to the mice once daily for 5 days from 3 days after induction to 7 days after induction. As the test compound, the compound of Example 20, the compound of Example 29, and the compound of Example 57 were used. The compound of Example 20, the compound of Example 29, and the compound of Example 57 were suspended in a 0.5 w/v % methylcellulose solution and orally administered. The group in which the compound of Example 20 was administered to mice was defined as the Example-20 compound administration group, the group in which the compound of Example 29 was administered was defined as the Example-29 compound administration group, and the group in which the compound of Example 57 was administered was defined as the Example-57 compound administration group. In the vehicle administration group, a vehicle of each test compound (0.5 w/v % methylcellulose solution) was similarly administered.
The right and left ear thickness before administration of imiquimod (before induction) on the induction day and the right and left ear thickness on the 8th day after induction were measured with a digital micrometer (Mitutoyo Corporation). […]

[2] = test system: DNFB-induced mouse allergic dermatitis model; test: DNFB-induced mouse allergic dermatitis model; assay type: in vivo; conditions: BALB/c mice; 10 mg/kg orally one hour before induction; 24th hour after induction; vs vehicle, Student's t-test P<0.05
Description: Using increase in the ear swelling rate as an index of exacerbation of symptoms, the effect of the cyclic amine derivative (I) or a pharmacologically acceptable salt thereof in a DNFB-induced mouse allergic dermatitis model was evaluated. The DNFB-induced mouse allergic dermatitis model was prepared by a partially modified method by Curzytek et al. (Pharmacological Reports, 2013, Vol. 65, p. 123′7-1246).
BALB/c mice (female, 6 weeks old) (Charles River Laboratories Japan, Inc.) were used at 7 weeks old after preliminary breeding. To the back of the mice, 25 μL of a 0.5 v/v % DNFB solution dissolved in acetone:olive oil (4:1) was applied. The next day, the same operation was repeated to sensitize the mice. Four days after the sensitization, 10 μL each of a 0.2 v/v % DNFB solution dissolved in acetone:olive oil (4:1) was applied to both sides of the right auricle of the sensitized mice to induce inflammation.
One hour before induction, the compound of Example 20, the compound of Example 29, or the compound of Example 57 was administered at a dose of 10 mg/kg to the mice. The compound of Example 20, the compound of Example 29, and the compound of Example 57 were suspended in a 0.5 w/v % methylcellulose solution and orally administered. The group in which the compound of Example 20 was administered to mice was defined as the Example-20 compound administration group, the group in which the compound of Example 29 was administered was defined as the Example-29 compound administration group, and the group in which the compound of Example 57 was administered was defined as the Example-57 compound administration group. […]
The right ear thickness before application of the DNFB solution (before induction) on the induction day and the right ear thickness at the 24th hour after induction were measured with a digital micrometer (Mitutoyo Corporation). The swelling rate of the auricle was calculated by Formula 3 and used as an index of the drug efficacy evaluation. […]

| SMILES | change in the ear thickness (ear thickness on the 8th day after induction − before induction) [1] | ear swelling rate (%) [2] |
| --- | --- | --- |
| O=C(Nc1ccc(-c2ccccc2OC(F)(F)F)c(Cl)c1)[C@H]1CCCCN1C(=O)Cn1cnnn1 [Example 57, (R)-1-(2-(1H-tetrazol-1-yl)acetyl)-N-(2-chloro-2′-(trifluoromethoxy)-[1,1′-biphenyl]-4-yl)piperidine-2-carboxamide] | statistically significantly suppressed | statistically significantly suppressed |
| CN(CC(=O)N1CCCC[C@@H]1C(=O)Nc1ccc(-c2ccccc2OC(F)(F)F)c(Cl)c1)S(C)(=O)=O [Example 29, (R)-N-(2-chloro-2′-(trifluoromethoxy)-[1,1′-biphenyl]-4-yl)-1-(2-(N-methylmethylsulfonamide)acetyl)piperidine-2-carboxamide] | statistically significantly suppressed | statistically significantly suppressed |
| CC(=O)N1CCCC[C@@H]1C(=O)Nc1ccc(-c2ccccc2OC(F)(F)F)c(Cl)c1 [Example 20, (R)-1-acetyl-N-(2-chloro-2′-(trifluoromethoxy)-[1,1′-biphenyl]-4-yl)piperidine-2-carboxamide] | statistically significantly suppressed | statistically significantly suppressed |
